Test results from the NIST ThermoML archive (doi:10.1021/acs.jced.5b01058).
Numbers after ± are expanded uncertainties.

Settings: Liquid, Ebulliometric method (Recirculating still)

CCCCOC(C)=O [butyl ethanoate]
Settings	vapor or sublimation pressure [kPa]
361.85 K	29.92 ± 0.77
364.47 K	32.95 ± 0.78
370.9 K	41.42 ± 0.79
373.32 K	45.02 ± 0.82
380.1 K	56.43 ± 0.83
381.99 K	60 ± 0.9
382.01 K	60 ± 0.9
382.08 K	60.15 ± 0.87
388.06 K	72.71 ± 0.89
391.2 K	80.09 ± 0.93
394.58 K	88.69 ± 0.96
398.35 K	99.03 ± 1
399.09 K	101.3 ± 1

CCCC(=O)OCC [ethyl butanoate]
Settings	vapor or sublimation pressure [kPa]
361.56 K	35.41 ± 0.79
365.24 K	40.41 ± 0.81
371.33 K	50 ± 0.82
373.83 K	54.4 ± 0.84
376.28 K	58.98 ± 0.83
377.21 K	60 ± 0.9
377.23 K	60 ± 0.9
379.65 K	65.75 ± 0.9
384.82 K	77.2 ± 0.91
387.65 K	84.14 ± 0.94
390.23 K	90.84 ± 0.98
393.63 K	100.4 ± 0.99
393.78 K	101.3 ± 1

CCC(C)=O [butanone]
Settings	vapor or sublimation pressure [kPa]
350.25 K	94 ± 0.7

CCCCC(=O)OC [methyl pentanoate]
Settings	vapor or sublimation pressure [kPa]
361.82 K	29.41 ± 0.77
366.7 K	35.06 ± 0.78
370.86 K	40.47 ± 0.79
374.53 K	45.81 ± 0.81
378.84 K	52.83 ± 0.83
382.55 K	59.35 ± 0.75
383.29 K	60 ± 0.8
387.18 K	69.02 ± 0.9
391.14 K	77.71 ± 0.91
395.42 K	88.17 ± 0.94
398.03 K	95.08 ± 0.96
400.07 K	100.4 ± 0.9
400.48 K	101.3 ± 0.9

CCCOC(=O)CC [propyl propanoate]
Settings	vapor or sublimation pressure [kPa]
361.75 K	33.58 ± 0.79
367.3 K	40.92 ± 0.8
371.88 K	47.9 ± 0.81
373.82 K	51.21 ± 0.84
378.75 K	60 ± 1
379.07 K	60.83 ± 0.95
383.56 K	70.32 ± 0.9
386.81 K	77.9 ± 0.93
390.13 K	86.38 ± 0.96
392.74 K	93.37 ± 0.99
395.51 K	101.3 ± 1

CCCCCOC=O [pentyl methanoate]
Settings	vapor or sublimation pressure [kPa]
370.04 K	33.67 ± 0.8
374.41 K	39.15 ± 0.81
377.87 K	44.06 ± 0.83
381.35 K	49.42 ± 0.86
385.08 K	55.79 ± 0.88
387.4 K	60 ± 0.9
387.46 K	60 ± 0.9
387.67 K	60.5 ± 0.9
391.65 K	68.46 ± 0.94
394.01 K	73.5 ± 0.97
396.89 K	80.16 ± 1
399.55 K	86.56 ± 1
402.19 K	93.45 ± 1.1
405.12 K	101.3 ± 1.1

CCCCCCCC [octane]
Settings	vapor or sublimation pressure [kPa]
380.76 K	60 ± 1
380.78 K	60 ± 1
380.82 K	60 ± 1
380.84 K	60 ± 1
380.85 K	60 ± 1
380.87 K	60 ± 1
380.94 K	60 ± 1

CCCCCCC [heptane]
Settings	vapor or sublimation pressure [kPa]
368.85 K	94 ± 0.7
